According to ChEMBL document CHEMBL1201862, “PubChem BioAssay data set” (2004):
Calls of active or inactive are those of the source.

Key:
[1] = T. cruzi growth inhibition in host cells, dose response, cell-based, plate reader, dry powder, set 2 (AID 652275); type: functional
fMet-Leu-Phe receptor = fMet-Leu-Phe receptor (Homo sapiens, UniProt P21462); assay: FPR ligands, dose response (AID 519); type: functional
[2] = biological target: T1, DNA repair protein RAD52 homolog (Homo sapiens, UniProt P43351); type: functional, biochemical
T1 sequence (P43351 whole entry): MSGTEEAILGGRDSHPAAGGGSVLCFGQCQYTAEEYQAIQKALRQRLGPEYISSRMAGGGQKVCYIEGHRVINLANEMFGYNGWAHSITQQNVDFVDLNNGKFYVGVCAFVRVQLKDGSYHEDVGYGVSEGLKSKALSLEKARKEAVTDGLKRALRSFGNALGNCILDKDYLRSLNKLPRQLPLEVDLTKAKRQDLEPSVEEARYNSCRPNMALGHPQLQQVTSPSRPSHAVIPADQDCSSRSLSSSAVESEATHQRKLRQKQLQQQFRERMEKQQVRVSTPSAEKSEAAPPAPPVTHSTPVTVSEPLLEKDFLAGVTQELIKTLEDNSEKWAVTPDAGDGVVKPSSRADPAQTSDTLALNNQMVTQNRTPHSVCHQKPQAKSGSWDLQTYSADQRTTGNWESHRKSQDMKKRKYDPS

[3] = biological target: T2, DNA repair and recombination protein RAD54-like (Homo sapiens, UniProt Q92698); assay: inhibitors of human RAD54 branch migration, confirmation, biochemical, fluorescence, cherry-picked samples, dose series (AID 651657); type: functional
T2 sequence (Q92698 whole entry): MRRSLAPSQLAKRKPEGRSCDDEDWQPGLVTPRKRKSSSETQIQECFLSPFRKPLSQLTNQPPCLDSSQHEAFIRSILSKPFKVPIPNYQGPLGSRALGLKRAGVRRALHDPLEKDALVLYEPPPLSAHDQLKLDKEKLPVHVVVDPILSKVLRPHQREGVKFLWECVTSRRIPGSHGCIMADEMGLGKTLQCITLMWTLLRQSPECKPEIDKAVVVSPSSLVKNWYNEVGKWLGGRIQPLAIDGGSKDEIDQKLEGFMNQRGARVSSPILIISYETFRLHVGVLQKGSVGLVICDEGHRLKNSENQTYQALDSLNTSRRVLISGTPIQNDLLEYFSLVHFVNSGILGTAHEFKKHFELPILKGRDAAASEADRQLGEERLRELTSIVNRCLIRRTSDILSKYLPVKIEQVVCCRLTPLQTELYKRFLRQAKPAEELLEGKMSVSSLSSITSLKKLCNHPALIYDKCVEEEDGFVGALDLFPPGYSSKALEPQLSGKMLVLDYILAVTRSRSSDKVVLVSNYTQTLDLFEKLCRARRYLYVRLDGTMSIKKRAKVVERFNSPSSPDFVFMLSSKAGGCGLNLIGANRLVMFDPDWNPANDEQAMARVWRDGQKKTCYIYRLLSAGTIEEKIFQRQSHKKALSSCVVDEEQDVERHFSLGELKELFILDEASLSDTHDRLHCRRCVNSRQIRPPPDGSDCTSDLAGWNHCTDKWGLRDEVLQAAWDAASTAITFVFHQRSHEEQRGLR

[4] = biological target: T3, Oxysterols receptor LXR-beta (Homo sapiens, UniProt P55055); type: functional, cell-based;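 further: agonist activity at LXR measured by a cell-based luminescence readout across a dose range, run as a counterscreen for daf-12 agonists; HEK293 cells with Gal4-LXR fusion and GAL4-driven luciferase reporter; potency for activation of Gal4-LXR reporter so compounds are agonists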
T3 sequence (P55055 whole entry): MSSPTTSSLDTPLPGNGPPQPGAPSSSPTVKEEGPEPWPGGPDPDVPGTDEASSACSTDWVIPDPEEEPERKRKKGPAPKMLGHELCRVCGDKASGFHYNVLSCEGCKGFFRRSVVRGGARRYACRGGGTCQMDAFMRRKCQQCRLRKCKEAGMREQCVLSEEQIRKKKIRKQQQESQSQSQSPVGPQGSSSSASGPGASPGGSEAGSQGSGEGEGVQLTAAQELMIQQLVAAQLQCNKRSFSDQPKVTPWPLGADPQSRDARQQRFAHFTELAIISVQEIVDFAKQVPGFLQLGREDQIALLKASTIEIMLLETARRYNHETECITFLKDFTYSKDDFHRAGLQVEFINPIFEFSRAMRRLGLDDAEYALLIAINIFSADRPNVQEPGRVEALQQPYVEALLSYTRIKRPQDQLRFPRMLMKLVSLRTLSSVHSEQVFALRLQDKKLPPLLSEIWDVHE

[5] = MITF Orthogonal Assay: SK-MEL-5 CTG Assay Measured in Cell-Based System Using Plate Reader - 2084-02_Inhibitor_Dose_DryPowder_Activity_Set7.; type: functional
[6] = MITF: Counter assay: A375 proliferation Measured in Cell-Based System Using Plate Reader - 2084-03_Inhibitor_Dose_DryPowder_Activity_Set8.; type: functional; conditions: A-375
Cytochrome P450 3A4 = Cytochrome P450 3A4 (Homo sapiens, UniProt P08684);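 further: CYP3A4 tested as one member of a cytochrome P450 panel screen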
Cytochrome P450 1A2 = biological target: T4, Cytochrome P450 1A2 (Homo sapiens, UniProt P05177);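 further: PubChem cytochrome P450 panel assay, CYP1A2 panel member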
T4 sequence (P05177 whole entry): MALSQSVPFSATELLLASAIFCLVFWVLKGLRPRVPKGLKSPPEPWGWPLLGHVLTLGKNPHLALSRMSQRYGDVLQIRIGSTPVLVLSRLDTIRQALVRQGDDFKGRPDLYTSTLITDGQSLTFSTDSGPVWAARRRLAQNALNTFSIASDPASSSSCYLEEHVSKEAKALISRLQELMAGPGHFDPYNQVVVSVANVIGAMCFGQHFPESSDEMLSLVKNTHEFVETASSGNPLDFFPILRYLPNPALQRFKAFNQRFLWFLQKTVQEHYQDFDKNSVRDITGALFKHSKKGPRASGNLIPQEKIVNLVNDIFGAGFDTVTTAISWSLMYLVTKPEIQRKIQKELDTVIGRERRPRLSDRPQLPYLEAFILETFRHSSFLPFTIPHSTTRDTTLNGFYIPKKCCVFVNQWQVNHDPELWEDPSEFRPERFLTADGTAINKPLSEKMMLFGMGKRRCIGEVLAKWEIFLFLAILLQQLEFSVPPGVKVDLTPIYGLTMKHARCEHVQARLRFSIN

Cytochrome P450 2C19 = Cytochrome P450 2C19 (Homo sapiens, UniProt P33261); assay: Cytochrome panel assay with activity outcomes. Panel member name: p450-cyp2c19 Compounds with AC50 equal or less than 10 uM are considered active; type: functional; conditions: read-out: AC50
Cytochrome P450 2C9 = Cytochrome P450 2C9 (Homo sapiens, UniProt P11712)
[7] = biological target: FAD-linked sulfhydryl oxidase ALR (Homo sapiens, UniProt P55789); assay: inhibitors of human ALR sulfhydryl oxidase, dose response, biochemical, H2O2 detection, luminescence, cherry-pick (AID 493248)
[8] = biological target: T5, Rac GTPase-activating protein 1 (Homo sapiens, UniProt Q9H0H5); assay: MgcRacGAP GTPase-activating activity inhibitors, confirmation, biochemical, ADP Hunter fluorescence, primary and confirmatory (AID 624330); type: functional
T5 sequence (Q9H0H5 whole entry): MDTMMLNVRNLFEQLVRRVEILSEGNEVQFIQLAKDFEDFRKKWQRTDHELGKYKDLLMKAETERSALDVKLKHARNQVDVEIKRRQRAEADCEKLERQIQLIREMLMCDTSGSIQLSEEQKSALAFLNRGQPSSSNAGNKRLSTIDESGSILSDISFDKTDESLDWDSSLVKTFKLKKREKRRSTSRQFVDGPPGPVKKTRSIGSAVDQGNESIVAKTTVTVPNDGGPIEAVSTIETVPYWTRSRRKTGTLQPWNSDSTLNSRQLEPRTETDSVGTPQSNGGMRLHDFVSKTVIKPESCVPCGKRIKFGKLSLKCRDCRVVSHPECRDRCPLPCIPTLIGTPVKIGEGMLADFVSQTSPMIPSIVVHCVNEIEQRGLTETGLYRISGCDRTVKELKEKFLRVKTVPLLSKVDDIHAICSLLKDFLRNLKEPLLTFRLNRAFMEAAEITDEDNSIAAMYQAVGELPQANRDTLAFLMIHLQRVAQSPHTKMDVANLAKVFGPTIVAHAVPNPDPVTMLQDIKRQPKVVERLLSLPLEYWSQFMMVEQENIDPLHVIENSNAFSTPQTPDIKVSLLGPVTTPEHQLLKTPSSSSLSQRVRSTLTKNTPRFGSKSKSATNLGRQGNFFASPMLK

[9] = human group III sPLA2 inhibitors, dose response, biochemical, QFRET, IC50 (AID 743457);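 further: green fluorescence rise as the enzyme cleaves BODIPY PC-A2 in liposomes; potency for inhibition of the enzyme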
[10] = HEK293T cytotoxicity, dose response, cytotoxicity control for miR-122 modulator project, cell-based, inhibitor set, cherry-pick, set 2 (AID 720697); type: functional
[11] = inhibitors of HIV Env-driven cell fusion, dose response, cherry-pick (AID 652057); type: functional, cell-based
[12] = CEM21 lymphoblast cell cytotoxicity, dose response, cytotoxicity control for viral fusion inhibitor project, CellTiter-Glo luminescence, cherry-picked (AID 652042); type: functional, cell-based;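 further: potency for signal decrease meaning cytotoxicity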
Steroidogenic factor 1 = Steroidogenic factor 1 (Homo sapiens, UniProt Q13285); assay: Counterscreen for inverse agonists of the liver receptor homolog-1 (LRH-1; NR5A2): Luminescence-based cell-based high throughput dose response assay to identify inverse agonists of the Steroidogenic Factor 1 Nuclear Receptor (SF1; NR5A1).; type: functional
[13] = biological target: T6, Carboxy-terminal domain RNA polymerase II polypeptide A small phosphatase 1 (Homo sapiens, UniProt Q9GZU7); assay: inhibitors of CTDSP1, concentration-response testing, biochemical assay, absorbance-based, actives from ultra-high-throughput screening (AID 540297); type: functional
T6 sequence (Q9GZU7 whole entry): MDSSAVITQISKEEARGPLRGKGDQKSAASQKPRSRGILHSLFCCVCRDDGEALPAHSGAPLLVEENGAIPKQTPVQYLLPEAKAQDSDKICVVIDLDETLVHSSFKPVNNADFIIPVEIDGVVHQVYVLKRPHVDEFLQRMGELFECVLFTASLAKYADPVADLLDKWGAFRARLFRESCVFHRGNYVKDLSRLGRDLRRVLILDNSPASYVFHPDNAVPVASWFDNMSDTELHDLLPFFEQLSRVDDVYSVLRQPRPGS

[14] = biological target: T7, Low molecular weight phosphotyrosine protein phosphatase (Homo sapiens, UniProt P24666); type: functional; conditions: read-out: IC50_Mean;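 further: Dose-response confirmation assay measuring inhibition of LMPTP enzyme activity by fluorescence intensity read-out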
T7 sequence (P24666 whole entry): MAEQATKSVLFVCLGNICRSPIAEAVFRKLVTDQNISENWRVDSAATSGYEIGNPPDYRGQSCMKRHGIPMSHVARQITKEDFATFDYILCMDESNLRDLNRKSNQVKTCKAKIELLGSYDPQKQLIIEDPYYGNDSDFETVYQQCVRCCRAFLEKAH

[15] = biological target: Nuclear receptor subfamily 5 group A member 2 (Homo sapiens, UniProt O00482); type: functional, cell-based;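 further: HEK293T cells transfected with LRH-1 and a StAR promoter luciferase reporter; potency for inhibitors that lower LRH-1 driven reporter light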
Albumin = Albumin (Bos taurus, UniProt P02769); assay: Counterscreen for inhibitors of T-cell receptor (TCR)-CD3 interaction: Fluorescence-based biochemical high throughput dose response assay to identify inhibitors of T-cell receptor (TCR)-CD3 interaction using a TAMRA-labeled BSA probe.; type: functional
cells [16] = type: functional, cell-based
[17] = biological target: T8, Trace amine-associated receptor 1 (Homo sapiens, UniProt Q96RJ0); assay: Counterscreen for agonists of the human trace amine associated receptor 1 (hTAAR1): Fluorescence-based cell-based high throughput dose response assay to identify hTAAR1 agonist that also desensitize TAAR1 receptor response.; type: functional
T8 sequence (Q96RJ0 whole entry): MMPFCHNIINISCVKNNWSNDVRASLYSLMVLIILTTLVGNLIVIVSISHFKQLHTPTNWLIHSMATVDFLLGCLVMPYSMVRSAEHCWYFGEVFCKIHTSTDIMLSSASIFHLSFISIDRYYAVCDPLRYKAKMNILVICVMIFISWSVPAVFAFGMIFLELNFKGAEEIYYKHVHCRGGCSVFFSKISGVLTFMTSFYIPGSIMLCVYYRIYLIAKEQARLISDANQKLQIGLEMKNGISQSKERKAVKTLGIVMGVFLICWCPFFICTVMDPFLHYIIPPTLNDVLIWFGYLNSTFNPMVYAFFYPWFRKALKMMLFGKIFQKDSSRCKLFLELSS

cells [18] = type: functional, cell-based; remark: listed apart in the source
[19] = biological target: T8, Trace amine-associated receptor 1; assay: Fluorescence-based cell-based high throughput dose response assay to identify agonists of the human trace amine associated receptor 1 (TAAR1).; type: functional

Sequence of fMet-Leu-Phe receptor (P21462 whole entry): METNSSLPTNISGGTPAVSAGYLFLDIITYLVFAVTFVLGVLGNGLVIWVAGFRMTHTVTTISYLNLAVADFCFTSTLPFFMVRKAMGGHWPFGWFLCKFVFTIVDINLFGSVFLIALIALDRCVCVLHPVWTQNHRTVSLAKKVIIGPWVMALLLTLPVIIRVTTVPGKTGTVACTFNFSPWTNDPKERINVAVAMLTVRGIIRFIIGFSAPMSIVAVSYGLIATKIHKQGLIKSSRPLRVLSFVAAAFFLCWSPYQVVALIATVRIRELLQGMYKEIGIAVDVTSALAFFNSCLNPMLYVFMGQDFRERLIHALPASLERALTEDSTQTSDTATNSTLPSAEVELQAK
Sequence of FAD-linked sulfhydryl oxidase ALR (P55789 whole entry): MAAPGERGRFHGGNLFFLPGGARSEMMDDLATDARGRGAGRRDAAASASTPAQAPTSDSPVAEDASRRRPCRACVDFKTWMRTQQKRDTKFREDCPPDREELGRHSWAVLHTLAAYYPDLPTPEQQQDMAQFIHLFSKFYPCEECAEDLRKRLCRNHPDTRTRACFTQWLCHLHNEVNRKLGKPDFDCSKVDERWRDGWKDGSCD
Sequence of Nuclear receptor subfamily 5 group A member 2 (O00482 whole entry): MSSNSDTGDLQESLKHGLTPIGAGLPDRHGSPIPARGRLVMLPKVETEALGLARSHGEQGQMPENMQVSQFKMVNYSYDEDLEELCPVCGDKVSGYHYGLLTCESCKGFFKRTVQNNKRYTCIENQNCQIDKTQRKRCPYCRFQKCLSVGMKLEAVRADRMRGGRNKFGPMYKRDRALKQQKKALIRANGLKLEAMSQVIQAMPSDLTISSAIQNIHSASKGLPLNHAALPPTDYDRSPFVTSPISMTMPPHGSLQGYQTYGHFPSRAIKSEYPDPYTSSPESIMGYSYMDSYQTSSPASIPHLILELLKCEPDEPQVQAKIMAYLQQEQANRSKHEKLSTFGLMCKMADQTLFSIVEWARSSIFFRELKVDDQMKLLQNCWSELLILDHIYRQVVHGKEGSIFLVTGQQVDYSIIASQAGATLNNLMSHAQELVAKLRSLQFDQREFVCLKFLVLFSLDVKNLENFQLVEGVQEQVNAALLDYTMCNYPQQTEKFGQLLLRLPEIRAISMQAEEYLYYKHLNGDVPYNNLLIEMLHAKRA
Sequence of Cytochrome P450 2C9 (P11712 whole entry): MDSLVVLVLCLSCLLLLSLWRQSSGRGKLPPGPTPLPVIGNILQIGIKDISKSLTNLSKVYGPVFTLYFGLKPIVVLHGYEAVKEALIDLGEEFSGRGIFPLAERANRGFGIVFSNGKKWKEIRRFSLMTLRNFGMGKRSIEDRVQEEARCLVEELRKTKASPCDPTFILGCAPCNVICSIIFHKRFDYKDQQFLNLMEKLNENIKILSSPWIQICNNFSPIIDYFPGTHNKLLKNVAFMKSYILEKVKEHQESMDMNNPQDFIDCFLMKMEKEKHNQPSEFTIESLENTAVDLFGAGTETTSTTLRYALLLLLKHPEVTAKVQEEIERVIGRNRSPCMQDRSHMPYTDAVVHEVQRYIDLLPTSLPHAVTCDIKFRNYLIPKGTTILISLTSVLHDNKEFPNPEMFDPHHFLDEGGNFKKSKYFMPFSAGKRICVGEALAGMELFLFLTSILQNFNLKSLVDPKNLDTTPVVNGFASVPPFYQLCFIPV
Sequence of Cytochrome P450 2C19 (P33261 whole entry): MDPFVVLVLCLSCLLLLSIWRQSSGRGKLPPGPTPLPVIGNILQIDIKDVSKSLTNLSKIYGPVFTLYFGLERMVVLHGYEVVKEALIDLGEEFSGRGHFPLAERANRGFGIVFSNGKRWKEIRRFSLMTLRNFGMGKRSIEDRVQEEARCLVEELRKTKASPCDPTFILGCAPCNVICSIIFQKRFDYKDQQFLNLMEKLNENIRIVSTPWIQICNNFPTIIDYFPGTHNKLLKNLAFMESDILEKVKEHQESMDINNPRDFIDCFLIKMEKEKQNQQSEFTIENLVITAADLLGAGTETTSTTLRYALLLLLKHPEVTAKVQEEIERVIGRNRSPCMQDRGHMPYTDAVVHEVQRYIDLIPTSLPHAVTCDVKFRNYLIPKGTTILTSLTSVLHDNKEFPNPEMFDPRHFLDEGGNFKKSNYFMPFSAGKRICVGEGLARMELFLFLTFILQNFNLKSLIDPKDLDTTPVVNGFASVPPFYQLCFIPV
Sequence of Cytochrome P450 3A4 (P08684 whole entry): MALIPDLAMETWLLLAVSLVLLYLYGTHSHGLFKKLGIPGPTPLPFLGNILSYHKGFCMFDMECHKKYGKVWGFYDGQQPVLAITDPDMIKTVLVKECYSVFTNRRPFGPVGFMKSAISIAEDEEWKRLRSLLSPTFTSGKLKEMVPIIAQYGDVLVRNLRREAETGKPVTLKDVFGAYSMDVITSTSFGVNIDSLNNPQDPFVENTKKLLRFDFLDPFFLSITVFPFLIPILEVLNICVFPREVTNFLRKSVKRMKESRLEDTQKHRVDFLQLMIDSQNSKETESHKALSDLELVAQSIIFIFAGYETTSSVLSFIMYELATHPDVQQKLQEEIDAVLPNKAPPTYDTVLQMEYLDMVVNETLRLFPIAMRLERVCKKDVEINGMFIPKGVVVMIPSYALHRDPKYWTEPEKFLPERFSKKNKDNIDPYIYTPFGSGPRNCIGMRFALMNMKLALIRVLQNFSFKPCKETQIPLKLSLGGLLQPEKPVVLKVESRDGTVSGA
Sequence of Steroidogenic factor 1 (Q13285 whole entry, the tested form may be a part): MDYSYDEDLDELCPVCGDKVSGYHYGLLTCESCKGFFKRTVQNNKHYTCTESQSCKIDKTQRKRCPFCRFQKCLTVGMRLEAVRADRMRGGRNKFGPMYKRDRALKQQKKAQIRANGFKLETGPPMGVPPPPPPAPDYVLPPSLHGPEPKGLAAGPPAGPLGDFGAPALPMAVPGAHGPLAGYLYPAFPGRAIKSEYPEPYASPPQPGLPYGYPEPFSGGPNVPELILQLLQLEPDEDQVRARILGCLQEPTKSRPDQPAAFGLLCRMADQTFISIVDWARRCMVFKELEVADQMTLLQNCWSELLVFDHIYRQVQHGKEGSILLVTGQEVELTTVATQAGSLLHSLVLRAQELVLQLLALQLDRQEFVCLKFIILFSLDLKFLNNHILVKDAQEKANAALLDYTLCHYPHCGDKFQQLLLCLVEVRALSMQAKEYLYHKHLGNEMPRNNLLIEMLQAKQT
Sequence of Albumin (P02769 whole entry): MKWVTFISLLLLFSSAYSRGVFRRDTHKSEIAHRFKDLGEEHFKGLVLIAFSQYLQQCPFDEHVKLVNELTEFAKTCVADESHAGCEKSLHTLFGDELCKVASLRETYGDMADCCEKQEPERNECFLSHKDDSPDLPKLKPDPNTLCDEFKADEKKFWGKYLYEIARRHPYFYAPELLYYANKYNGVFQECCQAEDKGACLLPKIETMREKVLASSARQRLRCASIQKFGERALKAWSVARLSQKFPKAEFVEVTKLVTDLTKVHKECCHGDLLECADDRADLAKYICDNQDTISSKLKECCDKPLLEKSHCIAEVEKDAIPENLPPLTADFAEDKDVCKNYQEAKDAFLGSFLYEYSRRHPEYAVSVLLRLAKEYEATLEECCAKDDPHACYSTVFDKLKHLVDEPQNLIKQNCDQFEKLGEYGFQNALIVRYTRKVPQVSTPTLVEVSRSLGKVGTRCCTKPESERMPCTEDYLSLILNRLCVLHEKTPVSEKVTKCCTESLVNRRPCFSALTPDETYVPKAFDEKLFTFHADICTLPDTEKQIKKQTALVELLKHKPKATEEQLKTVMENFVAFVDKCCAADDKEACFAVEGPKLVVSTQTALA

With COCCNC(=O)c1cc2c(c(-c3cccc(C#CCN(C)C)c3)n1)[C@@H](CCO)N([S+]([O-])C(C)(C)C)C2 (stereo partly drawn) the AC50 [1] was 4.21 µM (active).

With Cc1c(CNCc2cccs2)c(C(=O)O)c(C)n1Cc1ccccc1 the Ki (fMet-Leu-Phe receptor) was > 66.7 µM (inactive).

For COc1ccc2oc3cc(NCCN(C)C)ccc3c(=O)c2c1, the AC50 [2] was 5.46 µM (active), the AC50 [3] was 7.73 µM (active) and the EC50 [4] was > 67.5 µM (inactive).

With O=C1C=C(NC2CCCCC2)C(=O)c2ccccc21 the AC50 [5] was 18.9 µM (active) and the AC50 [6] was > 70 µM (inactive).

In the case of COc1cc(C2C(C(=O)c3cccs3)=C(O)C(=O)N2Cc2ccco2)cc(OC)c1OC (stereo not drawn), the AC50 (Cytochrome P450 3A4) is reported as 25.1 µM (inconclusive), the AC50 (Cytochrome P450 1A2) is reported as 17.8 µM (inconclusive) and the AC50 (Cytochrome P450 2C19) is reported as 14.1 µM (inconclusive). The Ki (fMet-Leu-Phe receptor) was 27 µM (inactive) and the AC50 (Cytochrome P450 2C9) was 25.1 µM (inconclusive).

In the case of O=C(Nc1ccc(N2CCCCCC2)cc1)c1ccc[nH]1, the AC50 [7] is reported as 0.42 µM (active), the IC50 [8] is reported as 34 µM (active) and the IC50 [9] is reported as 100 µM (inactive).

For CCOc1ccc(C(CCc2ccccc2)NC(=O)c2ccccc2F)cc1OCC (stereo not drawn), the AC50 [10] was 4.56 µM (active).

In the case of COc1ccc2c3c([nH]c2c1)[C@H](CO)N(C(=O)Nc1cccc(F)c1)CC31CCN(S(=O)(=O)c2ccccc2)CC1, the AC50 [11] is reported as 25.4 µM (active) and the AC50 [12] is reported as 19.4 µM (active).

For CC(C)N1CC2(CN(Cc3ccccn3)C2)Oc2c(NC(=O)c3ccncc3)cccc2C1=O, the AC50 [1] was 1.37 µM (active).

For COc1ccc(NC(=O)CSc2sc3c(O)cc(=O)[nH]c3c2C#N)c(OC)c1, the IC50 (Steroidogenic factor 1) was 13 µM (inactive), the IC50 [13] was 4.21 µM (active) and the IC50 [14] was 26 µM (inactive). For the same compound, the IC50 [15] was 20.2 µM (inactive) and the IC50 (Albumin) was > 94.1 µM (inactive).

In the case of O=C(CC1CCCC1)N[C@H](C(=O)N1CCC[C@H]1C(=O)NCCc1ccccc1Cl)c1ccccc1, the EC50 (cells [16]) is reported as > 29.9 µM (inactive), the IC50 [17] is reported as 6.57 µM (active) and the IC50 (cells [18]) is reported as > 29.9 µM (inactive). For the same compound, the EC50 [19] was 2.2 µM (active).
